The values below come from EP0796090B1, “CROSS-LINKED MICROPARTICLES AND THEIR USE AS T[…]” (Elan Drug Delivery Limited, priority 1994, dated 1996).

Some results are limits rather than exact numbers.

This test concerns HSN cell line. Nature of the test: In vitro cytotoxic activity, MTT assay. The class given is cell-based, rat. As to conditions: HSN cells; for Emax: Rattus norvegicus, read-out: maximum reduction in cell activity. The method, then: Cytotoxic activity of the drug-microcapsule conjugates of Examples 5 to 7 was measured in vitro. The HSN cell line was used. This is a chemically-induced rat colonic sarcoma, which produces liver tumours in an animal model with a vascular pattern similar to that seen in human colorectal liver metastases. Cell kill was measured indirectly using MTT. This is reduced in active mitochondria to formazan, a coloured metabolite. HSN cells were incubated in multi-well plates to which was added a control dose of drug or drug-microcapsule lysate. After a range of exposure times, MTT was added to the wells and the concentration of formazan measured as an indication of […]. The assay was calibrated for this cell line against a range of known cell numbers.
For orientation: Tetrazolium assays rely on reduction of a dye to a coloured formazan, in cell work by metabolically active cells.

For “2-fluoro-5-deoxyuridine [Example 5-FUdR]”, the “maximum reduction in cell activity” value was “approximately 80%”.
In the case of `COc1cccc2c1C(=O)c1c(O)c3c(c(O)c1C2=O)C[C@@](O)(C(=O)CO)C[C@@H]3O[C@H]1C[C@H](N)[C@H](O)[C@H](C)O1` [doxorubicin], the “steepest part of the dose response curve” value was not above 0.1 µg/mL and the Emax is approximately 80%.
Consider `CN(Cc1cnc2nc(N)nc(N)c2n1)c1ccc(C(=O)N[C@@H](CCC(=O)O)C(=O)O)cc1` [methotrexate], for which the Emax is approximately 80%.
